According to patent US20140128337A1, “Curcuminoids in Combination Docetaxel for the Treatment of Cancer and Tumour Metastasis” (Institut National de la Sante et de la Recherche Medicale …, priority 2009, published 2014):
Each block holds one compound with its values, some of them ahead of it.

Legend:
[1] = test system: PAF synthesis; assay: PAF synthesis, incorporation of [3H]-acetate into lyso-PAF in MDCK-MDR1 cells; type: cell-based, canine; conditions: curcumin 30 min, doses observable in man
Description: PAF synthesis: PAF synthesis was measured by incorporation of [^3H]-acetate into lyso-PAF accordingly to the protocol described in (Bernatchez PN et al. Br. J. Pharmacol. 2001 134: 1252-1262 and Barthomeuf C. et al. Free Rad Biol Med 2006, 40: 581-590). […] The reaction was stopped by addition of acidified methanol. Polar lipids were isolated according to Bligh and Dyer. After solvent evaporation under N2, ^3H-PAF was purified by HPLC on silica gel, and quantified by radioactivity counting vs authentic ^3H-PAF.

[2] = test system: PA1 ovarian carcinoma cells; assay: Cell proliferation, resazurin reduction test (RTT assay); type: cell-based, human; conditions: curcumin 10 uM
Description: (§1) Cell culture: Madine Darby canine kidney (MDCK-MDR1) cells, provided by Amanda Yancy (AstraZeneca Pharmaceuticals), were cultured in DMEM supplemented with 10% FBS as reported previously (Barthomeuf et al. 2005). Human primary fibroblasts were purchased from Biopredic International (Rennes, France). Human MCF7 (ER+breast), A549 (non small cell lung), PC3 (androgen-resistant prostate) DLD1 (colon), PA1 (ovary), MDA-mb-231 (ER-, PTEN positive), MDA-mb-468 (ER-, PTEN negative) carcinoma and U87 (glioblastoma) lines were purchased from the European Collection of Cell Cultures (ECACC,
(§2) Salibury, UK) or the American Type Culture Collection (ATCC, Manassas, Va.). Cells were cultured in modified Eagle's medium (MEM) supplemented with 10% fetal calf serum, 2 mM L-glutamine and 100 units/ml penicillin, and 100 μg/ml streptomycin (Barthomeuf et al. 2002) or MEM supplemented with 1 mM sodium pyruvate and containing 10% FBS and antibiotics (U-87). The cells were cultured at 37° C. under a humidified 95%-5% (v/v) mixture of air and CO2.
(§3) The drugs were administered in DMSO 0.5%. Cell proliferation and attachment to the matrix were determined by measuring the amount of resazurin reduced by esterases from living cells (RTT assay) and by measuring the amount of attached biomass with the DNA binding agent (Ho 33342). Fluorescence was assayed at 590/630 nm (RTT assay) or 360/460 nm (Ho assay) as described in (Barthomeuf et al. Planta Med 2002).
(§4) The human tested lines include highly invasive U87 glioblastoma cells (SphK1 overexpression), 5 human carcinoma lines: weakly invasive MCF7 (estrogen receptor (ER) and PTEN positive) and metastatic MDA-mb-468 (ER and PTEN lack of function) breast carcinoma cells, metastatic PC3 (androgen resistant, p53 loss of function) prostate carcinoma cells, highly proliferative PA1 ovarian carcinoma cells and DLD1 (Pgp-positive) colon carcinoma cells. Primary fibroblasts were used as a model of human non-tumoral cells. Assays were conducted on exponentially growing human cells cultured overnight in MEM supplemented with 10% FBS. […] This supports a value of curcumin/DTX combination for treatment of tumors displaying these characteristics.

[3] = test system: MDA-mb-468 breast carcinoma cells; assay: as above; type: cell-based, human
Description: as §1, §2, §3, §4

[4] = test system: primary fibroblasts; assay: as above; type: cell-based, human; conditions: curcumin 10 uM
Description: as §1, §2, §3, §4

[5] = test system: panel of cancer lines issued from human solid tumors; assay: Antiproliferative effect on a panel of cancer lines, resazurin reduction test; type: cell-based; conditions: curcumin 10 uM
Description: as §1
as §2, with “The cells were cultured at 37° C. under a humidified 95%-5% (v/v) mixture of air and CO2.” left out
as §3, with “2002). […]” for “2002).”

[6] = test system: U87 glioblastoma cells; assay: Curcumin/DTX co-treatment, cell proliferation and survival; type: cell-based, human; conditions: curcumin 10 uM + DTX 1 nM, 48 h co-treatment
Description: as §1
as §2, with “The cells were cultured at 37° C. under a humidified 95%-5% (v/v) mixture of air and CO2.” left out
as §3

[7] = test system: advanced colorectal cancer; conditions: 36-180 mg/day; cited from earlier work
[8] = test system: HIF-1α; assay: Western blot of HIF-1α in MCF7 cells; type: cell-based, human
Description: Western blot: After treatment, control and treated cells were washed with PBS, then incubated in PBS containing 1 mM of each NaF and Na3VO4 and solubilized on ice in lysis buffer [150 mM NaCl, 10 mM Tris-HCl, pH 7.4, 1 mM EDTA, 1 mM EGTA, 1 mM NaF, 1 mM Na3VO4, 0.5% (v/v) Nonidet P-40, and 1% (v/v) Triton X-100] or in FosRipa buffer (10 mM Tris/HCl pH 7.5, 250 mM NaCl, 0.1% SDS, 1% Nonidet P40, 1% sodium deoxycholate). […] Protein concentrations and Western blotting was performed according to standard procedures. […] Mouse monoclonal antisera directed against HIF-1α or survivin were used as primary antibodies and horseradish peroxidase-coupled anti-mouse (Dako) as secondary antibodies.
Then HIF-1α was assessed by Western blotting.

[9] = test system: MCF7 cells; assay: MCF7 cell survival, Ho assay; type: cell-based, human; conditions: DTX 5 uM (clinical dose), 72 h, P<0.01
Description: as §3
Treatment by DTX at clinical dose contributes to induction of drug resistance. […] We finally examined the effect of DTX on MCF7 cell survival and HIF-1 transcription. In this aim, DTX was tested at 2 concentrations 1 nM and 5 uM (a concentration representative of blood levels after DTX administration, Investigator Brochure 2002). Al tests were carried out on highly proliferative cells cultured in MEM medium supplemented with 10% FBS. Survival was assayed with the Ho assay after 6 h and 72 h.

[10] = test system: survivin; assay: Western blot of survivin in MCF7 cells; type: cell-based, human; conditions: MCF7, DTX at clinical doses
Description: Western blot: After treatment, control and treated cells were washed with PBS, then incubated in PBS containing 1 mM of each NaF and Na3VO4 and solubilized on ice in lysis buffer [150 mM NaCl, 10 mM Tris-HCl, pH 7.4, 1 mM EDTA, 1 mM EGTA, 1 mM NaF, 1 mM Na3VO4, 0.5% (v/v) Nonidet P-40, and 1% (v/v) Triton X-100] or in FosRipa buffer (10 mM Tris/HCl pH 7.5, 250 mM NaCl, 0.1% SDS, 1% Nonidet P40, 1% sodium deoxycholate). When needed insoluble pellets were solubilized in Laemmli samples buffer (62.5 mM Tris-HCl pH 6.8, 2.4% SDS, 100 mM DDT, 10% glycerol, 1 mM EDTA, 0.001% bromphenol blue), heated for 5 min at 96° C. and centrifuged briefly before loading. Protein concentrations and Western blotting was performed according to standard procedures. Equal amounts of protein (50 μg) were loaded for separation via 7.5% SDS-PAGE. Mouse monoclonal antisera directed against HIF-1α or survivin were used as primary antibodies and horseradish peroxidase-coupled anti-mouse (Dako) as secondary antibodies.

[11] = DTX treatment alone; cited from earlier work
[12] = target: T1, P-glycoprotein (Pgp) (Homo sapiens, UniProt P08183); assay: Inhibition of [3H]-VBL efflux by MDCK-MDR1 cells; type: cell-based; conditions: CV-3988 10 uM, 30-min pre-exposure
T1 construct: expressed in transfected cells; host or cells: MDCK (canine kidney) cells stably transfected with human MDR1
T1 sequence (P08183 whole entry): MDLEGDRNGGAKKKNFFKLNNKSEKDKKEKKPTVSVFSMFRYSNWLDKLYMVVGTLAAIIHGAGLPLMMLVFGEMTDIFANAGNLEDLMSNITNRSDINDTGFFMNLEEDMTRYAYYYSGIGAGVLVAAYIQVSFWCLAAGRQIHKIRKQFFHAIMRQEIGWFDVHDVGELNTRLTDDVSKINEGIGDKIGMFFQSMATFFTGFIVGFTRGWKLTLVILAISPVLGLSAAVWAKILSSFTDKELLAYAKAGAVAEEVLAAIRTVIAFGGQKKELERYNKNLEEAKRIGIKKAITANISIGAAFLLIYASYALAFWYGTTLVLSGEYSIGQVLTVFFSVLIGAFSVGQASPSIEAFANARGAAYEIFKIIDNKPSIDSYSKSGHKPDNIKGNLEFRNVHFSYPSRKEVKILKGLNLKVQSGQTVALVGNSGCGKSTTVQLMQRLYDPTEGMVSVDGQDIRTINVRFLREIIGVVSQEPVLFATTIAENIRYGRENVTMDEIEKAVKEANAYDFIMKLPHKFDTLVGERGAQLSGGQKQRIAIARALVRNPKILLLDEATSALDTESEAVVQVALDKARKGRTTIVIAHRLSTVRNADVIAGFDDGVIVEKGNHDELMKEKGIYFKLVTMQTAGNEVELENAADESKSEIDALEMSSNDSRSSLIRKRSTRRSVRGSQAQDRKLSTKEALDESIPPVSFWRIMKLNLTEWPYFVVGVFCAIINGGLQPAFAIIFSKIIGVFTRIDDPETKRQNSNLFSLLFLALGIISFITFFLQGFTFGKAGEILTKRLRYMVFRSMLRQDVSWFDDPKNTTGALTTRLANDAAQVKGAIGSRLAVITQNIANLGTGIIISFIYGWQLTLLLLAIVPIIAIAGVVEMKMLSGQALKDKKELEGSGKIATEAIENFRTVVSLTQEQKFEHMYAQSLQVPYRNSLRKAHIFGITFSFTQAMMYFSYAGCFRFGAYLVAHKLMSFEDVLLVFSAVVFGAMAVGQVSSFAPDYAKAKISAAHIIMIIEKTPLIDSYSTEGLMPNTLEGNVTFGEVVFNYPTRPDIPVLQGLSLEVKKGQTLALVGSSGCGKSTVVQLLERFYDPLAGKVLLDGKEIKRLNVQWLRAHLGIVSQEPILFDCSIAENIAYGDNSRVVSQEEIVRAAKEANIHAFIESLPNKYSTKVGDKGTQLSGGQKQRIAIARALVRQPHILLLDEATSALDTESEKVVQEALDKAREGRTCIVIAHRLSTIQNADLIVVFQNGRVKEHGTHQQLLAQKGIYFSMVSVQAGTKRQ
Description: Inhibition of [^3H]-VBL efflux by MDCK-MDR1 cells: [^3H]-VBL was determined by scintillation counting accordingly to (Barthomeuf et al. Cancer Chemother Pharmacol 2005; 56: 173-81). […] The cells were then exposed for 120 min to 20 nM of ^3H-VBL (0.23 μCi). ^3H-VBL accumulation was stopped by washing the cells (5-fold) with cold PBS (150 mM NaCl, 2.7 mM KCl, 1.3 mM KH2PO4, 8.1 mM, Na2HPO4, pH 7.4). The cells were lysed with 0.1% Triton X-100 and the radioactivity was counted.

Compound: COc1cc(/C=C/C(=O)CC(=O)/C=C/c2ccc(O)c(OC)c2)ccc1O [curcumin, (1E,6E)-1,7-bis (4-hydroxy-3-methoxyphenyl)-1,6-heptadiene-3,5-dione]
- PAF synthesis [1]: down-regulation of PAF synthesis
- proliferation of PA1 cells [2]: suppressed
- proliferation decreased ([3]; curcumin 10 uM): 23%
- effect of co-treatment on DTX efficacy ([3]; curcumin 10 uM + DTX 1 nM, 48 h co-treatment): enhances in a synergistic manner DTX efficacy
- toxicity for primary fibroblasts [4]: without significant toxicity
- growth of all tested tumor lines [5]: strongly impairs the growth
- effect of co-treatment on DTX efficacy [6]: enhances in a synergistic manner DTX efficacy
- stabilisation, patients [7]: 5/15
- HIF-1α level after curcumin post-treatment ([8]; MCF7, DTX 5 uM 72 h, then 6 h EGF 10 ng/mL + MG-132 with or without curcumin 10 uM): lower amount of HIF-1α

Compound: CC(=O)O[C@@]12CO[C@@H]1C[C@H](O)[C@@]1(C)C(=O)[C@H](O)C3=C(C)[C@@H](OC(=O)[C@H](O)[C@@H](NC(=O)OC(C)(C)C)c4ccccc4)C[C@@](O)([C@@H](OC(=O)c4ccccc4)[C@H]21)C3(C)C [DTX, (2R,3S)-N-carboxy-3-phenylisoserine, N-tert-butyl ester, 13-ester with 5, 20-epoxy-1,2,4,7, 10, 13-hexahydroxytax-11-en-9-one 4-acetate 2-benzoate, trihydrate]
- MCF7 survival decreased [9]: 92%
- survivin expression in surviving cells vs control [10]: higher amount of survivin than control cells
- number of objective responses usually observed [11]: around 50%
- HIF-1α in resistant sub-populations vs control ([8]; MCF7, DTX at clinical doses): higher amounts of HIF-1α than control cells
- HIF-1α in resistant sub-populations vs control ([8]; MCF7, DTX at low concentration): less HIF-1α than control cells

- (3H)-VBL accumulation in MDCK-MDR1 cells [12]: promotes (^3H)-VBL accumulation
Compound: CCCCCCCCCCCCCCCCCCNC(=O)OCC(COP(=O)([O-])OCC[n+]1ccsc1)OC (stereo not drawn) [CV-3988]
